Results from the supplement of paper PMC10627819.

Tests used:
Assay in all cases: fitness (endpoint OD595 vs no drug) (fraction); higher = more growth
[1] = test system: S. aureus Newman
How it was run: (§1)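 Fitness is computed from the optical density at which cultures reach stationary phase, divided by the robust mean of no-drug control wells. Any value above 1 is set to 1. Cultures started at OD595 0.01 in 384-well plates with TSB, LB Lennox or CY at 37 °C, and OD595 was read every 30 min for 14 h against a first-reading background.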

[2] = test system: S. aureus DSM 20231
How it was run: as §1

[3] = test system: B. subtilis 168
How it was run: as §1
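Note: OD595 on entry to stationary phase over no-drug wells; at most 1.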

N[C@@H]1CONC1=O [Cycloserine D] + CC1=C\[C@@H](O)CC(=O)Cc2nc(co2)C(=O)N2CCC=C2C(=O)O[C@H](C(C)C)[C@H](C)/C=C/C(=O)NC\C=C\1 [Virginiamycin M1]
fitness
Conditions	first compound 0.125 µg/mL	first compound 0.25 µg/mL	first compound 0.375 µg/mL	first compound 0.5 µg/mL	first compound 0.75 µg/mL	first compound 1.5 µg/mL
[1], partner 0.0625 µg/mL	–	–	≥ 1	–	0.969	0.985
[1], partner 0.125 µg/mL	–	–	≥ 1	–	0.98	0.991
[1], partner 0.25 µg/mL	–	–	≥ 1	–	1	0.981
[2], partner 0.0625 µg/mL	–	–	≥ 1	–	≥ 1	0.955
[2], partner 0.125 µg/mL	–	–	≥ 1	–	≥ 1	≥ 1
[2], partner 0.25 µg/mL	–	–	0.999	–	1	≥ 1
[3], partner 0.0625 µg/mL	0.967	0.971	–	0.852	–	–
[3], partner 0.125 µg/mL	0.922	0.909	–	0.916	–	–
[3], partner 0.25 µg/mL	0.921	0.906	–	≥ 1	–	–

fitness, one replicate
Conditions	first compound 0.375 µg/mL	first compound 0.75 µg/mL	first compound 1.5 µg/mL
[1], partner 0.5 µg/mL	0.914	0.934	≥ 1
[1], partner 1 µg/mL	≥ 1	0.967	0.882
[1], partner 2 µg/mL	0.888	0.931	0.769
[2], partner 0.5 µg/mL	0.996	0.99	0.999
[2], partner 1 µg/mL	0.958	0.984	0.908

N[C@@H]1CONC1=O [Cycloserine D] + CCCCCCCCCC(=O)N[C@@H]1[C@H]([C@@H]([C@H](O[C@H]1OC2=C3C=C4C=C2OC5=C(C=C(C=C5)[C@H]([C@H]6C(=O)N[C@@H](C7=C(C(=CC(=C7)O)OC8[C@H]([C@H]([C@@H]([C@H](O8)CO)O)O)O)C9=C(C=CC(=C9)[C@H](C(=O)N6)NC(=O)[C@@H]4NC(=O)[C@@H]1C2=CC(=CC(=C2)OC2=C(C=CC(=C2)[C@H](C(=O)N[C@H](CC2=CC(=C(O3)C=C2)Cl)C(=O)N1)N)O)O)O)C(=O)O)O[C@H]1[C@@H]([C@H]([C@@H]([C@H](O1)CO)O)O)NC(=O)C)Cl)CO)O)O [Teicoplanin]
fitness, main component drawn
Conditions	first compound 0.375 µg/mL	first compound 0.75 µg/mL	first compound 1.5 µg/mL
[1], partner 0.1562 µg/mL	≥ 1	≥ 1	0.975
[1], partner 0.3125 µg/mL	≥ 1	≥ 1	≥ 1
[1], partner 0.625 µg/mL	0.865	0.779	0.77
[2], partner 0.1562 µg/mL	≥ 1	≥ 1	0.989
[2], partner 0.3125 µg/mL	≥ 1	≥ 1	≥ 1
[2], partner 0.625 µg/mL	≥ 1	≥ 1	≥ 1

fitness, [1], one replicate, main component drawn
Conditions	first compound 0.375 µg/mL	first compound 0.75 µg/mL	first compound 1.5 µg/mL
partner 0.62 µg/mL	0.831	0.783	0.894
partner 1.24 µg/mL	0.745	0.694	0.743
partner 2.48 µg/mL	0.368	0.341	0.377
